Data on 4 molecules can be found in US7208157B2, “Proteolysis targeting chimeric pharmaceutical” (California Institute of Technology, priority 2000, dated 2007).

Assay [1] has as its target T1, MetAP-2 (Homo sapiens, UniProt P50579). Description: Degradation experiments with Xenopus egg extracts. The assay is classed as biochemical, Xenopus laevis. The procedure: Extracts from unfertilized Xenopus laevis eggs were prepared the day of the experiment, as described (See Murray, A. W., Methods Cell Biol., 3:581–605 (1991)). The MetAP-2-Protac-1 mixture (4 μl of 9 μM MetAP-2 plus 50 μMProtac-1) or MetAP-2 alone was added to […] of extract in addition to OVA (10 μM final), constitutively active IKK (IKK-EE, 0.4 μg), and okadaic acid (OA; 10 μM final). N-acetyl-leu-leu-norleucinal (LLnL, 50 μM final), epoxomicin (10 μM final), or DMSO vehicle were added to the indicated concentrations to inhibit degradation by the proteasome. The protease inhibitors chymostatin, pepstatin, and leupeptin ([…] final concentration) also were added to the extracts. Reactions were incubated for the indicated times at room temperature and terminated by adding 50 μl of SDS/PAGE loading buffer. Samples were evaluated by Western blotting as described above.
However, the key issues are whether Protac-1 can specifically activate MetAP-2 degradation, and whether targeted degradation can be achieved by endogenous ubiquitin/proteasome pathway components at typical intracellular concentrations. To address these questions, MetAP-2 was preincubated with Protac-1 to allow the complexes to form, and then added the mixture to Xenopus egg extract supplemented with IKK-EE (See Mercurio, F., Zhu, et al., Science,. 278:860–66. (1997)), OA, and OVA. The addition of IKK-EE and OA was intended to sustain phosphorylation of the IkBa peptide moiety of Protac-1, whereas OVA was added to prevent the further linkage of Protac-1 to MetAP-2. […] Moreover, addition of both IKK-EE and OA was required for optimal degradation of MetAP-2-Protac-1. Similarly, we have seen specific turnover of the MetAP-2-Protac-1complex, but not free MetAP-2, in three independent experiments. […] MetAP-2 turnover was very specific, in that maximal degradation required agents predicted to sustain phosphorylation of the LkBa peptide.

Assay [2] deals with T2, SCF^β-TRCP (Homo sapiens, UniProt Q9Y297). In words: Control ubiquitination of IKK-phosphorylated glutathione S-transferase-IkBalpha by SCFβ-TRCP immunoprecipitates. Format: biochemical. The arrangement: made in house; host or cells: 293T cells, transient transfection, anti-FLAG immunoprecipitation. The note with it: anti-FLAG SCFβ-TRCP immunoprecipitates; data not shown. The source says: Before testing the activity of Protac-1, an approach to isolate and assay SCF^β-TRCP complexes in vitro as described (See Tan, P., et al., Mol. Cell, 3:327–33 (1999)) was first adapted. Lysates from 293T cells transfected with plasmids that encoded β-TRCP and Cul-1 proteins tagged with the FLAG epitope at the N terminus were immunoprecipitated with anti-FLAG antibody-conjugated resin. Immunoblot analysis confirmed that all components of SCF^β-TRCP were present in the anti-FLAG immunoprecipitate, including Skp 1, Hrt 1, and the transfected FLAG Cul-1 and FLAG β-TRCP (data not shown). Furthermore, control experiments confirmed that these immunoprecipitates promoted ubiquitination of IKK-phosphorylated glutathione S-transferase-LkBalpha in a manner that was inhibited by the IPP and Protac-1 (data not shown; ref. 7). To determine whether Protac-1 could recruit MetAP-2 to SCF^β-TRCP , MetAP-2 (18 μM) was first incubated with Protac-1 (100 μM) for 45 mm at room temperature. After isolation of SCF^β-TRCP complexes, the anti-FLAG beads were supplemented with the MetAP-2-Protac-l mixture and rotated at room temperature for 1 hr. The beads and supernatant then were evaluated by Western blot analysis for the presence of MetAP-2. […]
Target sequence in this assay (Q9Y297 whole entry): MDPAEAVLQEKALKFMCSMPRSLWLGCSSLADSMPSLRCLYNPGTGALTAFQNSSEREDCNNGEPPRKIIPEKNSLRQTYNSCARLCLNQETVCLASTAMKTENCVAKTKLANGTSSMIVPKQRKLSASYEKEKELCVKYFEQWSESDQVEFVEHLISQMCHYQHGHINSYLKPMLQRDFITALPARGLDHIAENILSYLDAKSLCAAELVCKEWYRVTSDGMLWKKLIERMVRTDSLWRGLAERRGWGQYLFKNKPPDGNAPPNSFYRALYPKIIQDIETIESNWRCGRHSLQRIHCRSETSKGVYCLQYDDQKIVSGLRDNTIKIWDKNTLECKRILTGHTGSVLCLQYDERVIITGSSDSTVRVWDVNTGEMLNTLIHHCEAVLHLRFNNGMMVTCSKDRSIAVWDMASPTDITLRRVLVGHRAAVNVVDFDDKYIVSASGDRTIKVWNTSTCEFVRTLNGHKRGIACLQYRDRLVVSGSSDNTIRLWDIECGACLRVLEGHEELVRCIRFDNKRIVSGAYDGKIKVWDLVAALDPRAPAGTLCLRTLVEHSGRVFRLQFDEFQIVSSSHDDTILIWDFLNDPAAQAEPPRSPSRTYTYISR
Target sequence in this assay (Q13616 whole entry partner): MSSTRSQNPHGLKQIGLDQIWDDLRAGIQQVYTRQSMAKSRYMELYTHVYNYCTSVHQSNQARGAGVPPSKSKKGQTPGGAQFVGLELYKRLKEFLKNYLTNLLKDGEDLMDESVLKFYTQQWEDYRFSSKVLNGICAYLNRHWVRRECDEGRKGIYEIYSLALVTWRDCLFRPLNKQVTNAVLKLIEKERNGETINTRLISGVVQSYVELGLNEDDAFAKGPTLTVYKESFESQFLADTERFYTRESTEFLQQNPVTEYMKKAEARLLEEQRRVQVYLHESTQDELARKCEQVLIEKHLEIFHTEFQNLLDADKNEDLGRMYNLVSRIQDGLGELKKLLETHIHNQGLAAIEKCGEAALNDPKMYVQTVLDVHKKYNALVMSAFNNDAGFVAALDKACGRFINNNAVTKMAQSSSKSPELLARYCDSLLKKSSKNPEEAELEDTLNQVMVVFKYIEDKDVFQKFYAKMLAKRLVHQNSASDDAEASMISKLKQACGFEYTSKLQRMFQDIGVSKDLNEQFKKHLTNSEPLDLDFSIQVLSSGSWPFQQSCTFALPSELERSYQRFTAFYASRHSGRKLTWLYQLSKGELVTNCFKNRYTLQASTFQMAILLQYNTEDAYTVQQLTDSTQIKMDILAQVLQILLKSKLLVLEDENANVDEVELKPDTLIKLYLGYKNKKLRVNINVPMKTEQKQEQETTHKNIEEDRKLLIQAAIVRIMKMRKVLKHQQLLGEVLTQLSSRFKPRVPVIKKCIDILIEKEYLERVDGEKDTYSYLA
Target sequence in this assay (P63208 2-163 partner limits assumed): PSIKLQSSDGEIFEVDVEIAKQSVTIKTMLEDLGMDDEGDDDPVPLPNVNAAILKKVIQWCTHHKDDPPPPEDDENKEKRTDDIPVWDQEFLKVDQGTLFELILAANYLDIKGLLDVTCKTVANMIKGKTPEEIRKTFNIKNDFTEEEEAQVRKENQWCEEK
Target sequence in this assay (P62877 whole entry partner): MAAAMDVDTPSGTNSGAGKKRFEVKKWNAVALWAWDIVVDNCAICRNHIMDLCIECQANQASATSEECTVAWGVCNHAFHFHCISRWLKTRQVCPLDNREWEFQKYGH

Assay [3] concerns MetAP-2. In words: In vitro ubiquitination of MetAP-2 by SCFβ-TRCP beads with E1, E2 (Cdc34), ubiquitin, ATP. Format: biochemical. Particulars: 1 hr at 30° C.; 47-kDa and 67-kDa MetAP-2 preparations; Western blot. (In general: A western blot detects proteins with antibodies after separation by electrophoresis.)
Description: Pellets from cells transfected with vector, pFLAG-β-TRCP, or pFLAG-Cul-1 were vortexed for 10 sec, then incubated on ice for 15 min. After centrifugation at 13,000 rpm in an Eppendorf microfuge (Germany) for 5 min at 4° C., the supernatant was added to 20 μl of FLAG M2 beads (Sigma), which were washed with lysis buffer three times before immu-noprecipitation. Lysates were incubated with the beads on a rotator for 2 hr at 4° C., followed by one wash with buffer A (25 mM Hepes buffer, pH 7.4/0.01% Triton X-100/150 mM NaCl) and one wash with buffer B (the same buffer without the Triton X-100). […] After the addition of ligand, the beads were rotated at room temperature for 1 hr. The beads were washed once each with buffers A and B. After centrifugation at 13,000 rpm in an Eppendorf microfuge (Germany) for 1 min, half of the bead and supernatant fractions, representing bound and unbound, respectively, were evaluated by Western blotting as described above. For ubiquitination reactions, 4 μl of 18 μM MetAP-2, 4 μl of 100 μM Protac-1, 0.5 ml of 0.1 μg/μl purified mouse E1, 1 μl of 0.5 μg/μl human Cdc34 E2, and 1 μl of 25 mM ATP were added to 20 μl (packed volume) of washed FLAG-M2 beads. […] SDS/PAGE loading buffer was added to terminate reactions, which were evaluated by Western blotting as described above. […]
The target in assay [4] is T1, MetAP-2. In words: MetAP-2-Protac-1 coupling assay (SDS/PAGE, anti-MetAP-2 immunoblot). Format: binding. Particulars: MetAP-2 incubated with increasing Protac-1, or free IPP (50 μM) or free OVA (50 μM), room temperature 45 min. The procedure: MetAP-2 (9 μM) was incubated with increasing concentrations of Protac-1 (dissolved in water) at room temperature for 45 min. Reactions were supplemented with SDS loading dye, fractionated on an SDS/10% polyacryl-amide gel, transferred onto a nitrocellulose membrane, and immunoblotted with rabbit polyclonal anti-MetAP-2 antiserum (Zymed). Enhanced chemiluminescence was performed by using Amersham Pharmacia detection reagents.
T1 sequence (P50579 110-478 limits assumed): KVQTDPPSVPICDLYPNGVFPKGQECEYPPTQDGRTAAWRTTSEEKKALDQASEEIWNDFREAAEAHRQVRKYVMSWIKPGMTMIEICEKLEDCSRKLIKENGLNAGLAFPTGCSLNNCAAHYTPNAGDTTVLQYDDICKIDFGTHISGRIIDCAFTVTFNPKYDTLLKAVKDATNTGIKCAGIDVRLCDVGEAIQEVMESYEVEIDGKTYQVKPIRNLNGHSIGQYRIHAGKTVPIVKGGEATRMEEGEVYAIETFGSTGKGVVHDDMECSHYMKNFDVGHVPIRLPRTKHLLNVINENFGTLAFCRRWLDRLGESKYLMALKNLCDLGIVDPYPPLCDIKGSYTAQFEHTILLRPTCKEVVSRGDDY
The IkBalpha-OVA chimera, Protac-1 (FIG. 1B), was synthesized as described above. […] A Western blot analysis was performed with anti-MetAP-2 antiserum. […] The specificity of MetAP-2 interaction with Protac-1 in vitro was also tested.

The target of assay [5] is T2, SCF^β-TRCP. Description: Binding assay: recruitment of MetAP-2 to SCFβ-TRCP beads. The arrangement: made in house. Particulars: MetAP-2 (18 μM) preincubated with Protac-1 (100 μM) 45 min; beads 1 hr room temperature; vs control beads. Here is the method: 293T cell pellets were lysed with 200 μl of lysis buffer (25 mMTris/Cl, pH 7.5/150 mM NaCl/0.1% Triton X-100/5 mM NaF/0.05 mM EGTA/1 mM PMSF). Pellets from cells transfected with vector, pFLAG-β-TRCP, or pFLAG-Cul-1 were vortexed for 10 sec, then incubated on ice for 15 min. After centrifugation at 13,000 rpm in an Eppendorf microfuge (Germany) for 5 min at 4° C., the supernatant was added to 20 μl of FLAG M2 beads (Sigma), which were washed with lysis buffer three times before immu-noprecipitation. […] The beads were washed once each with buffers A and B. After centrifugation at 13,000 rpm in an Eppendorf microfuge (Germany) for 1 min, half of the bead and supernatant fractions, representing bound and unbound, respectively, were evaluated by Western blotting as described above. […] SDS/PAGE loading buffer was added to terminate reactions, which were evaluated by Western blotting as described above.
Before testing the activity of Protac-1, an approach to isolate and assay SCF^β-TRCP complexes in vitro as described (See Tan, P., et al., Mol. Cell, 3:327–33 (1999)) was first adapted. […] The beads and supernatant then were evaluated by Western blot analysis for the presence of MetAP-2. […]
Target sequence in this assay (Q9Y297 whole entry): as the sequence (Q9Y297 whole entry) above
Target sequence in this assay (Q13616 whole entry partner): as the sequence (Q13616 whole entry partner) above
Target sequence in this assay (P63208 2-163 partner limits assumed): as the sequence (P63208 2-163 partner limits assumed) above
Target sequence in this assay (P62877 whole entry partner): as the sequence (P62877 whole entry partner) above
Target sequence in this assay (P50579 whole entry, further chain): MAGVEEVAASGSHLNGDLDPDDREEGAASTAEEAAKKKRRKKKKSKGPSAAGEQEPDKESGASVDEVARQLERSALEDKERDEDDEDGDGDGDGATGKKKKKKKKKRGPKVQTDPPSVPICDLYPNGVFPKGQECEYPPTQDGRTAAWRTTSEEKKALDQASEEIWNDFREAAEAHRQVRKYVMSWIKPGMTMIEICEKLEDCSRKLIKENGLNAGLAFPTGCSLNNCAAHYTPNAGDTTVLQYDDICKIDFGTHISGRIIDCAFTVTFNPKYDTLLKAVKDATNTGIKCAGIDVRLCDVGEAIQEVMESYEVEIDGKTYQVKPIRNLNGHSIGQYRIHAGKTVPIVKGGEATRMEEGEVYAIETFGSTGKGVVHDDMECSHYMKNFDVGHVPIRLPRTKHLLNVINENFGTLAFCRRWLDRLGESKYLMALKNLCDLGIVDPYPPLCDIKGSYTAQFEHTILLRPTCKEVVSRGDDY

Assay [6] deals with T1, MetAP-2. The note with it: covalent, active site His-231; cited from earlier work.

“Also recorded” adds a separate entry of the source. Where a SMILES comes first, the peptide text is derived from it. [ ]: non-standard residue; d: D form. Nle = CCCC[C@H](N)C(=O)O

T1 sequence (P50579 whole entry, species assumed): as the sequence (P50579 whole entry, further chain) above

Consider `CC[C@H](C)[C@H](NC(=O)[C@H]([C@@H](C)CC)N(C)C(C)=O)C(=O)N[C@H](C(=O)N[C@@H](CC(C)C)C(=O)[C@@]1(C)CO1)[C@@H](C)O` [epoxomicin], for which the “effect on degradation of MetAP-2-Protac-1” value on MetAP-2 [1] (epoxomicin 10 μM final added to extract) is given as “attenuated”.

As to `CCCC[C@@H](C=O)NC(=O)[C@H](CC(C)C)NC(=O)[C@H](CC(C)C)NC(C)=O` [LLnL, N-acetyl-leu-leu-norleucinal] (Ac-Leu-Leu-[Nle]-aldehyde), the “effect on degradation of MetAP-2-Protac-1” value on MetAP-2 [1] (LLnL 50 μM final added to extract) was “attenuated”.

Turning to “IkBa peptide-suberate-Gly-ovalicinol [Protac-1]”, the “inhibition of ubiquitination of IKK-phosphorylated GST-IkBalpha” value against SCF^β-TRCP [2] is “inhibited”. In addition, the “ubiquitination of MetAP-2 by SCFβ-TRCP” value in the assay with MetAP-2 [3] was “specifically elicited ubiquitination of MetAP-2 by SCF^β-TRCP; also recorded: ubiquitinated in the presence of Protac-1”. In addition, the “formation of MetAP-2-Protac-1 complex (upper band / doublet on anti-MetAP-2 Western blot)” value at MetAP-2 [4] is “specifically conjugated to the OVA moiety of Protac-1 in a concentration-dependent manner”; at MetAP-2 [4] (listed as Protac), “MetAP-2 binds Protac specifically and in a concentration-dependent manner”. Moreover, the “degradation of MetAP-2-Protac-1 complex” value at MetAP-2 [1] (Xenopus egg extract with IKK-EE, OA and OVA, room temperature, MetAP-2 alone not degraded) is “mostly degraded after 30 mm; also recorded: degraded by proteasomes in Xenopus extracts”. Moreover, the “recruitment of MetAP-2 to SCFβ-TRCP beads” value at SCF^β-TRCP [5] is “specifically recruited MetAP-2 to SCF^β-TRCP”.

For `CO[C@@H]1[C@H](OC(=O)/C=C/C=C/C=C/C=C/C(=O)O)CC[C@]2(CO2)[C@H]1[C@@]1(C)O[C@@H]1CC=C(C)C` [fumagillin], at MetAP-2 [6], the “inhibition of MetAP-2” value was “inhibit MetAP-2 by covalently binding His-231 in the active site”.
